Patent publication US9023987B2, “Cell-permeable peptide” (Seoul National University R&DB Foundation, priority 2010, dated 2015)

Experiments:
[1] = biological target: T1, human-derived Smurf1 protein (Homo sapiens, UniProt Q9HCE7); assay: Affinity to Smurf1 by surface plasmon resonance (BIACORE T100); assay type: binding; conditions: 10 mM analyte over Smurf1 coupled to CM5 chip; FIG. 2A
T1 construct: purchased Origene Technologies (Rockville, Md., USA)
Method: In order to confirm the affinity between cell permeable peptide-bone differentiation inducing sequence conjugate and Smurf1 by a chemical method, a human-derived Smurf1 protein acting as a ligand in the present experiment was purchased from Origene Technologies (Rockville, Md., USA). The protein ([…]) was coupled to a gold coated surface of a CM5 chip (BIACORE AB, Sweden) on which amino groups are bounded using an EDC/NHS kit (BIACORE AB, Sweden). (Instead of this experimental method, ‘Immobilization’ integrated into the BIACORE® T100 (BIACORE AB, Sweden) software used by the present inventors may be used). In this case, in order to find a suitable pH condition at which the protein may bind to the amino group in the CM5 chip, a method called ‘pH scouting’ was performed, thereby finding a pH condition. As a method of ‘pH scouting’, a method integrated in the BIACORE® T100 (BIACORE AB, Sweden) software used by the present inventors may be used. […]

[2] = tested on: human mesenchymal stem cells (hMSC); assay: Cell permeability by flow cytometry; assay type: cell-based; parameters: dose or concentration left out as unconfirmed; conditions: FITC-labeled, relative to bone differentiation inducing sequence, FIG. 3B
Method: The domains synthesized in Example 1 and Comparative Examples 1 and 2 were labeled with a fluorescent material in order to measure cell permeability. 10 equivalents of fluorescein isothiocyanate (FITC) was bound to N-terminals of the synthesized domains by using triethylamine (1 ml per 1 g of resin). The synthesis of the peptide was confirmed by measuring the molecular weight thereof through MALDI-TOF.
In order to quantitatively confirm the cell permeability and cell permeation degree of fluorescence labeled magnetic nanoparticle conjugates, after 1×10^5 human mesenchymal stem cells (hMSC) were plated in each well of 6-well plate, the cells were cultured in a general medium for 20 hours (overnight incubation). […] fluorescence labeled cell permeable peptide-bone differentiation inducing sequence conjugate and […] fluorescence labeled bone differentiation inducing sequence that were obtained by binding FITC (SIGMA, USA) N-terminals of the cell permeable peptide-bone differentiation inducing sequence conjugate synthesized by the method in Example 1 and the domain in Comparative Example 2 to synthesize the fluorescence label conjugate and fluorescence label domain, followed by isolation and purification, were injected into each well and washed with the phosphate buffer solution (PBS) two times after 20, 40, 60, and 80 minutes of injection. […]

[3] = tested on: human mesenchymal stem cells (hMSC); assay: Cell differentiation ability by alkaline phosphatase (ALP) staining; assay type: cell-based; parameters: dose or concentration left out as unconfirmed; conditions: hard tissue-forming medium, 14 days, compared with PBS; FIG. 4A d-f
Method: In order to detect alkaline phosphate (ALP), which is a label material shown at the initial stage of bone differentiation, for cell differentiation ability of the cell permeable peptide-bone differentiation inducing sequence conjugate, human mesenchymal stem cells (hMSC) were seeded in a 24-well plate at 1×10^3/well, and then treated with the cell permeable peptide-bone differentiation inducing sequence conjugate synthesized from Example 1 and the bone differentiation inducing sequence of Comparative Example 2 of […] for each, and then incubated in a hard tissue forming medium for 14 days. The hard tissue-forming medium contained an MSCBM medium containing 15% FBS (fetal bovine serum), […] of L-ascorbic acid, 10^−7 M dexamethasone, 1% antibiotic-antimycotic solution, and 10 mM beta-glycerol phosphate. After completion of the incubation, the medium was removed, and then the cells were washed with phosphate buffer solution (PBS) twice. The cells were fixed with 10% NBF at room temperature for 20 minutes, and then washed with a phosphate buffer solution (PBS) twice. Then, staining was conducted using the Alkaline phosphatase detection kit (Millipore, USA) by the experiment method recommended by the manufacture.

T1 sequence (Q9HCE7 whole entry): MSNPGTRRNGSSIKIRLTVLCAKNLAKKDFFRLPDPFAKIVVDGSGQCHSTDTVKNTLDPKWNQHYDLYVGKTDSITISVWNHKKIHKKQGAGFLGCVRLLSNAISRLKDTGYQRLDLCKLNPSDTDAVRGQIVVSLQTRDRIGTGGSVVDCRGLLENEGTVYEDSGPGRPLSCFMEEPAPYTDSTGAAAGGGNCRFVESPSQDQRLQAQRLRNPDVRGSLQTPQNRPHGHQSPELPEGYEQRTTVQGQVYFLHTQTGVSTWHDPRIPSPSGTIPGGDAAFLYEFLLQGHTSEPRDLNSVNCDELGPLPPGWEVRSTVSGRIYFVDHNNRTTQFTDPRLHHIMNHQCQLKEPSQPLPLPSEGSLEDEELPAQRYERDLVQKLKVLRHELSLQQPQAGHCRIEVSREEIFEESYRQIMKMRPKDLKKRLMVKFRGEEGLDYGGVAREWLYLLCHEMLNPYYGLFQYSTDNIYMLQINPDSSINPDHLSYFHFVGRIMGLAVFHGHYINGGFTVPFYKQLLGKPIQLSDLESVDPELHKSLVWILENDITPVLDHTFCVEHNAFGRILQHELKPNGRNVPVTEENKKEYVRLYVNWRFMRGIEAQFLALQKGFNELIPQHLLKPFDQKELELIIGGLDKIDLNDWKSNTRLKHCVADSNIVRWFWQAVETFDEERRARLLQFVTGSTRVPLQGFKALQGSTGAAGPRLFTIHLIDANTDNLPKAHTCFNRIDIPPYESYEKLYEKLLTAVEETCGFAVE

NH2-GAPPPADSAP-SSRKKNPNCRRH-C-COONH2 (H-GAPPPADSAPSSRKKNPNCRRHC-NH2; cysteine pairing not given here) [Example 1]
affinity to Smurf1 [1]: 600 RU
relative increase of fluorescence intensity (flow cytometry) [2]: ≥ 10 times
differentiation into osteoblast, alkaline phosphatase staining [3]: relatively strong staining degree of alkaline phosphatase
